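Assay format: 96-well plates, 48-hour exposure. Here, GI50 denotes the concentration required for 50% inhibition of growth.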 Activity calls are given as the source filed them. Cut-off read from the data, not from the text of the source: active = GI50 up to about 1.1 µM and inactive = higher.
What was measured:
Assay in all cases: NCI-60 cell line screen, 48 h
SK-OV-3 = tested on: SK-OV-3
SNB-19 = tested on: SNB-19
PC-3 = tested on: PC-3
NCI-H23 = tested on: NCI-H23
HT-29 = tested on: HT-29
OVCAR-8 = tested on: OVCAR-8
Malme-3M = tested on: Malme-3M
NCI-H522 = tested on: NCI-H522
HOP-62 = tested on: HOP-62
SN12C = tested on: SN12C
SW-620 = tested on: SW-620
OVCAR-5 = tested on: OVCAR-5
K562 = tested on: K562
U-251 = tested on: U-251
SK-MEL-28 = tested on: SK-MEL-28
MCF7 = tested on: MCF7
SNB-75 = tested on: SNB-75
RPMI-8226 = tested on: RPMI-8226
IGROV-1 = tested on: IGROV-1
NCI-H226 = tested on: NCI-H226
MDA-MB-435 = tested on: MDA-MB-435
786-0 = tested on: 786-0
A549 = tested on: A549
MDA-MB-231 = tested on: MDA-MB-231
OVCAR-3 = tested on: OVCAR-3
HCC 2998 = tested on: HCC 2998
UACC-62 = tested on: UACC-62
A498 = tested on: A498
SF-295 = tested on: SF-295
EKVX = tested on: EKVX
RXF 393 = tested on: RXF 393
CAKI-1 = tested on: CAKI-1
MDA-N = tested on: MDA-N
MOLT-4 = tested on: MOLT-4
NCI-H460 = tested on: NCI-H460
HCT-116 = tested on: HCT-116
NCI/ADR-RES = tested on: NCI/ADR-RES
BT-549 = tested on: BT-549
UACC-257 = tested on: UACC-257
M14 = tested on: M14
ACHN = tested on: ACHN
LOX IMVI = tested on: LOX IMVI
SR = tested on: SR
KM12 = tested on: KM12
DU-145 = tested on: DU-145
TK-10 = tested on: TK-10
OVCAR-4 = tested on: OVCAR-4
UO-31 = tested on: UO-31
SK-MEL-5 = tested on: SK-MEL-5
SF-268 = tested on: SF-268
COLO 205 = tested on: COLO 205
HCT-15 = tested on: HCT-15
SF-539 = tested on: SF-539
SK-MEL-2 = tested on: SK-MEL-2
CCRF-CEM = tested on: CCRF-CEM

`CSC(=S)OC1C(CO[Si](C)(C)C(C)(C)C)OC2OC(C)(C)OC21` (stereo not given) was tested. Which GI50 (SK-OV-3) did it give?
Its GI50 is 20.2 µM (inactive).

And the GI50 (SNB-19)?
The GI50 was 21 µM (inactive).

What about the GI50 (PC-3) of the same compound?
The GI50 was 15.8 µM (inactive).

And the GI50 (NCI-H23)?
Its GI50 is 19.9 µM (inactive).

And the GI50 (HT-29)?
The GI50 was 11.4 µM (inactive).

What about the GI50 (OVCAR-8) of the same compound?
Its GI50 is 27.3 µM (inactive).

What about the GI50 (Malme-3M) of the same compound?
The GI50 was 14.8 µM (inactive).

And the GI50 (NCI-H522)?
The GI50 was 15.8 µM (inactive).

What about the GI50 (HOP-62) of the same compound?
Its GI50 is 18.4 µM (inactive).

And the GI50 (SN12C)?
The GI50 was 21.3 µM (inactive).

And the GI50 (SW-620)?
Its GI50 is 17.3 µM (inactive).

And the GI50 (OVCAR-5)?
The GI50 was 21.3 µM (inactive).

What about the GI50 (K562) of the same compound?
The GI50 was 17.1 µM (inactive).

And the GI50 (U-251)?
Its GI50 is 17.5 µM (inactive).

And the GI50 (SK-MEL-28)?
Its GI50 is 40.6 µM (inactive).

And the GI50 (MCF7)?
Its GI50 is 16.3 µM (inactive).

What about the GI50 (SNB-75) of the same compound?
The GI50 was > 100 µM (inactive).

What about the GI50 (RPMI-8226) of the same compound?
The GI50 was 16.3 µM (inactive).

What about the GI50 (IGROV-1) of the same compound?
Its GI50 is 18.3 µM (inactive).

What about the GI50 (NCI-H226) of the same compound?
The GI50 was 14.5 µM (inactive).

And the GI50 (MDA-MB-435)?
Its GI50 is 33.2 µM (inactive).

And the GI50 (786-0)?
The GI50 was 19.5 µM (inactive).

And the GI50 (A549)?
The GI50 was 25.5 µM (inactive).

And the GI50 (MDA-MB-231)?
Its GI50 is 17.7 µM (inactive).

And the GI50 (OVCAR-3)?
The GI50 was 17 µM (inactive).

What about the GI50 (HCC 2998) of the same compound?
Its GI50 is 21.3 µM (inactive).

What about the GI50 (UACC-62) of the same compound?
Its GI50 is 17 µM (inactive).

What about the GI50 (A498) of the same compound?
Its GI50 is 21.8 µM (inactive).

What about the GI50 (SF-295) of the same compound?
The GI50 was 17.4 µM (inactive).

What about the GI50 (EKVX) of the same compound?
The GI50 was 20.3 µM (inactive).

And the GI50 (RXF 393)?
The GI50 was 20.6 µM (inactive).

What about the GI50 (CAKI-1) of the same compound?
The GI50 was 31.6 µM (inactive).

What about the GI50 (MDA-N) of the same compound?
Its GI50 is 29.2 µM (inactive).

What about the GI50 (MOLT-4) of the same compound?
The GI50 was 15.3 µM (inactive).

And the GI50 (NCI-H460)?
Its GI50 is 17 µM (inactive).

And the GI50 (HCT-116)?
Its GI50 is 18.5 µM (inactive).

What about the GI50 (NCI/ADR-RES) of the same compound?
Its GI50 is 14.7 µM (inactive).

What about the GI50 (BT-549) of the same compound?
Its GI50 is 30.8 µM (inactive).

What about the GI50 (UACC-257) of the same compound?
Its GI50 is 17.1 µM (inactive).

And the GI50 (M14)?
Its GI50 is 47 µM (inactive).

What about the GI50 (ACHN) of the same compound?
Its GI50 is 17.1 µM (inactive).

And the GI50 (LOX IMVI)?
The GI50 was 15.7 µM (inactive).

What about the GI50 (SR) of the same compound?
Its GI50 is 13.7 µM (inactive).

What about the GI50 (KM12) of the same compound?
The GI50 was 15.6 µM (inactive).

And the GI50 (DU-145)?
The GI50 was 33.5 µM (inactive).

And the GI50 (TK-10)?
Its GI50 is 20.5 µM (inactive).

What about the GI50 (OVCAR-4) of the same compound?
The GI50 was 49.4 µM (inactive).

What about the GI50 (UO-31) of the same compound?
Its GI50 is 17.7 µM (inactive).

What about the GI50 (SK-MEL-5) of the same compound?
Its GI50 is 16.8 µM (inactive).

And the GI50 (SF-268)?
Its GI50 is 15.2 µM (inactive).

And the GI50 (COLO 205)?
The GI50 was 19.2 µM (inactive).

And the GI50 (HCT-15)?
Its GI50 is 18.4 µM.

And the GI50 (SF-539)?
The GI50 was 20.2 µM (inactive).

And the GI50 (SK-MEL-2)?
Its GI50 is 15 µM (inactive).

And the GI50 (CCRF-CEM)?
Its GI50 is 16.7 µM (inactive).

— ChEMBL document CHEMBL1201862, “PubChem BioAssay data set” (2004)
